Results from PMC6199744, “Development of Chemical Proteomics for the Folateome and Analysis of the Kinetoplastid Folateome” (ACS Infectious Diseases, 2018).

System: L. major lysate proteins
Assay: Multitargeted bead mixture chemoproteomics, single concentration competition, proteome-wide
Type: binding
Conditions: for fold change: vehicle control = 1

Nc1nc2c(c(=O)[nH]1)N(C=O)C(CNc1ccc(C(=O)N[C@@H](CCC(=O)O)C(=O)O)cc1)CN2 (stereo partly drawn) [LEU, leucovorin]
fold change vs vehicle control (protein LMJF.28.0490 PROPIONYL-COA C[…] CHAIN, PUTATIVE): 1.09 | fold change (protein LMJF.28.0710 HYPOTHETICAL PROTEIN, CONSERVED (SNARE associated Golgi protein, putative)): 0.76 | fold change vs vehicle control (protein LMJF.28.0930 HYPOTHETICAL PROTEIN, CONSERVED): 0.9 | fold change vs vehicle control (protein LMJF.28.0960 40S RIBOSOMAL PROTEIN S14): 1.06 | fold change vs vehicle control (protein LMJF.28.1530 ATP DEPENDENT DEAD-BOX HELICASE, PUTATIVE): 0.95 | fold change relative to vehicle control (protein LMJF.28.1730, […]-ATP-ASE SUBUNIT 2, PUTATIVE): 1.27 | fold change vs vehicle control (protein LMJF.28.2430 VACUOLAR ATP SYNTHASE SUBUNIT B, PUTATIVE): 1.01 | fold change relative to vehicle control (protein LMJF.28.2770, HEAT-SHOCK PROTEIN HSP70, PUTATIVE): 1.32 | fold change (protein LMJF.28.2910 GLUTAMATE DEHYDROGENASE, PUTATIVE): 1.1 | fold change vs vehicle control (protein LMJF.29.0120 […]-ATPASE SUBUNIT, PUTATIVE): 1.15 | fold change (protein LMJF.29.0620 ATP-BINDING CASSETTE PROTEIN SUBFAMILY A, MEMBER 10, PUTATIVE): 0.8 | fold change vs vehicle control (protein LMJF.29.0760 […] BI[…], PUTATIVE,HEAT SHOCK PROTEIN 90, PUTATIVE): 1.05 | fold change relative to vehicle control (protein LMJF.29.0850, HIGH MOBILITY GROUP PROTEIN HOMOLOG TDP-1, PUTATIVE): 2.2 | fold change vs vehicle control (protein LMJF.29.0940 HY[…], CONSERVED): 1.06 | fold change vs vehicle control (protein LMJF.29.1160 TRYPAREDOXIN): 1.05 | fold change vs vehicle control (protein LMJF.29.1240 HYPOTHETICAL PROTEIN, UNKNOWN FUNCTION): 0.99 | fold change vs vehicle control (protein LMJF.29.1270 100 kDa heat shock protein (Hsp100)): 0.99 | fold change vs vehicle control (protein LMJF.29.1310 CARNITINE/CHOLINE ACETYLTRANSFERASE, PUTATIVE): 0.93 | fold change relative to vehicle control (protein LMJF.29.1760, PAR[…] PROTEIN 1D, PUTATIVE): 1.22 | fold change vs vehicle control (protein LMJF.29.1780 D[…] PROTEIN, PUTATIVE): 1.01 | fold change (protein LMJF.29.2200 GTP-BINDING PROTEIN, PUTATIVE (dynamin-1-like protein)): 0.99 | fold change (protein LMJF.29.2310 ENOYL-COA HYDRATASE/ISOMERASE-LIKE PROTEIN): 0.93 | fold change vs vehicle control (protein LMJF.29.2360 ASPARTYL AMINOPEPTIDASE, PUTATIVE,METALLO-PEPTIDASE, CLAN MH, FAMILY M20): 1.08 | fold change (protein LMJF.29.2860 40S RIBOSOMAL PROTEIN S19-LIKE PROTEIN): 1.01 | fold change (protein LMJF.30.0580 HYPOTHETICAL PROTEIN, CONSERVED (AMP-binding enzyme, putative)): 0.99 | fold change (protein LMJF.30.0850 SURFACE PROTEIN AMASTIN, PUTATIVE): 0.99 | fold change vs vehicle control (protein LMJF.30.1250 PYRIDOXAL KINASE, PUTATIVE): 1.08 | fold change vs vehicle control (protein LMJF.30.2580 RETICULON DOMAIN PROTEIN, 22 KDA POTENTIALLY AGGRAVATING PROTEIN (PAPLE22)): 0.97 | fold change relative to vehicle control (protein LMJF.30.3090, HY[…], CONSERVED (RNA-binding protein 42, putative)): 1.16 | fold change vs vehicle control (protein LMJF.30.3240 GLUTAMYL-TRNA SYNTHETASE, PUTATIVE): 0.9 | fold change (protein LMJF.30.3380 PAS-DOMAIN CONTAINING PHOSPHOGLYCERATE KINASE, PUTATIVE): 0.97 | fold change (protein LMJF.30.3430 HYPOTHETICAL PROTEIN, CONSERVED (protein mkt1, putative)): 0.93 | fold change (protein LMJF.30.3520 S-ADENOSYLMETHIONINE SYNTHETASE): 0.9 | fold change (protein LMJF.30.3570 ZINC FINGER-DOMAIN PROTEIN, PUTATIVE): 0.81 | fold change relative to vehicle control (protein LMJF.31.0080, HY[…], CONSERVED): 1.25 | fold change vs vehicle control (protein LMJF.31.0340 AMINO ACID PERMEASE, PUTATIVE): 1.03 | fold change (protein LMJF.31.1130 N-ACYL-L-AMINO ACID AMIDOHYDROLASE, PUTATIVE): 1 | fold change vs vehicle control (protein LMJF.31.1640 THIOLASE PROTEIN-LIKE PROTEIN): 1.02 | fold change relative to vehicle control (protein LMJF.31.2150, PROSTAGLANDIN F2-ALPHA SYNTHASE/D-ARABINOSE DEHYDROGENASE): 1.25 | fold change vs vehicle control (protein LMJF.31.2250 3,2-TRANS-ENOYL-COA ISOMERASE, MIT[…], PUTATIVE): 0.92 | fold change vs vehicle control (protein LMJF.32.0750 RNA BINDING PROTEIN, PUTATIVE): 1.05 | fold change vs vehicle control (protein LMJF.32.1060 DYNEIN, PUTATIVE): 1.02 | fold change relative to vehicle control (protein LMJF.32.1820, IRON […], PUTATIVE): 1.22 | fold change relative to vehicle control (protein LMJF.32.2320, C-14 STEROL REDUCTASE, PUTATIVE): 1.12 | fold change vs vehicle control (protein LMJF.32.3870 MYOSIN XXI): 0.9 | fold change relative to vehicle control (protein LMJF.33.0240, THIOL-DEPENDENT REDUCTASE 1): 1.13 | fold change (protein LMJF.33.0280 HYPOTHETICAL PROTEIN, CONSERVED): 0.89 | fold change relative to vehicle control (protein LMJF.33.0890, HY[…], CONSERVED): 0.98 | fold change vs vehicle control (protein LMJF.33.1070 HY[…], UNKNOWN FUNCTION): 1.03 | fold change vs vehicle control (protein LMJF.33.1330 CYSTEINE CONJUGATE BETA-LYASE, AMINOTRANSFERASE- LIKE PROTEIN): 0.87 | fold change (protein LMJF.33.1590 HY[…], CONSERVED (3-ketoacyl-CoA reductase, putative)): 1.46 | fold change relative to vehicle control (protein LMJF.33.1860, ATP-BINDING CASSETTE PROTEIN SUBFAMILY D, MEMBER 3, PUTATIVE): 1.04 | fold change relative to vehicle control (protein LMJF.33.2340, SUCCINYL-COA:3-KETOACID-COENZYME A TRANSFERASE, MIT[…], PUTATIVE): 1.09 | fold change relative to vehicle control (protein LMJF.33.2440, HY[…], CONSERVED): 1.07 | fold change relative to vehicle control (protein LMJF.33.2540, CARBOXYPEPTIDASE, PUTATIVE,METALLO-PEPTIDASE, CLAN MA(E), FAMILY M32): 1.95 | fold change (protein LMJF.33.3150 40S RIBOSOMAL PROTEIN S13, PUTATIVE): 0.89 | fold change relative to vehicle control (protein LMJF.34.0140, MALATE DEHYDROGENASE): 1.53 | fold change vs vehicle control (protein LMJF.34.0440 RIBOSOMAL PROTEIN S25): 1.25 | fold change relative to vehicle control (protein LMJF.34.2580, HY[…], CONSERVED (ALBA-domain protein 3)): 1.01 | fold change relative to vehicle control (protein LMJF.34.3250, PUTATIVE PYRUVATE/INDOLE-PYRUVATE CARBOXYLASE, PUTATIVE): 1.08 | fold change (protein LMJF.34.4370 20S PROTEASOME BETA 7 SUBUNIT, (PUTATIVE)): 0.92 | fold change vs vehicle control (protein LMJF.34.4620 HYPOTHETICAL PROTEIN, CONSERVED): 0.95 | fold change (protein LMJF.35.0070 PROHIBITIN, PUTATIVE): 0.93 | fold change vs vehicle control (protein LMJF.35.0360 ENOYL-COA HYDRATASE/ISOMERASE FAMILY PROTEIN, CONSERVED): 1.24 | fold change (protein LMJF.35.0370 ATP-DEPENDENT DEAD-BOX RNA HELICASE, PUTATIVE): 0.97 | fold change (protein LMJF.35.0420 40S RIBOSOMAL PROTEIN S3A, PUTATIVE): 1.03
